Test results taken from patent US20240217917A1, “PHOTOLYTICALLY DEGRADABLE COMPOUNDS AND METHODS” (The University of Stavanger, priority 2021, published 2024).
Converted amounts (≈) assume the structure as drawn.

What was measured:
[1] = Photolysis of compounds 6-9, 6 W low-pressure mercury vapor lamp, conversion by 1H-NMR; type: physicochemical; details: pH 13; acetonitrile/NaOH solution 30/70; 254 nm low-pressure lamp; 24 hours
Procedure: Aminol 6-9 (compounds 6-9) were dissolved in acetonitrile and diluted with a sodium hydroxide solution at pH 13 (30/70, V/V). Since all the compounds have strong absorption bands around 250 nm (FIG. 8), a 6 W low-pressure mercury vapor lamp was chosen as the irradiation source, since it emits mainly at 254 nm. All reactions were carried out in a 75 mL gas inlet flask (˜0.7 mM) under a constant stream of nitrogen with a quartz well cold finger for 24 hours.
Following aqueous workup, the reaction mixtures were analysed with ^1H-NMR spectroscopy. […] The photodegradation reaction for compound 6 can be seen in Scheme 21. Additionally, the two doublets at 7.47 and 8.13 ppm (Hc and Ha) have disappeared into a complicated multiplet, and the aliphatic protons around 3 ppm are no longer visible (FIG. 6).

S. Epidermidis [2] = test: Minimum inhibitory concentration (MIC) screen, OD 600 nm; type: cell-based; design: key to Minimum inhibitory concentration, S. Epidermidis: I = inactive, i.e. below the activity threshold; details: screened at 100-1.6 μM
Procedure: (§1) With compounds 6-9 and the crude degradation mixtures in hand, the minimum inhibitory concentration (MIC) was screened against a number of gram-positive and gram-negative bacteria, including E. faecalis, E. coli, P. aeruginosa, S. aureus, S. agalactiae, and S. epidermidis. To determine the activity, optical density (OD) at 600 nm was measured to estimate the concentration of bacteria at concentrations from 1.6 -100 μM. Values below 0.05 are counted as active and indicates inhibition of growth, illustrated by plotting OD against the concentration for compounds 6-9, (FIG. 9). […] Black stapled lines at 0.05 for MIC and 30% for biofilm formation indicate activity threshold values. […] No activity was observed against the gram-negative bacteria (Table 3).

S. Aureus = test: as above; type: cell-based; design: key to Minimum inhibitory concentration, S. Aureus: I = inactive, i.e. below the activity threshold; details: screened at 100-1.6 μM; for MIC: Staphylococcus aureus
Procedure: as §1

S. Agalactiae = test: as above; type: cell-based; design: key to Minimum inhibitory concentration, S. Agalactiae: I = inactive, i.e. below the activity threshold; details: screened at 100-1.6 μM; for MIC: Streptococcus agalactiae
Procedure: as §1

S. Epidermidis [3] = test: Biofilm inhibition; type: cell-based; details: threshold 30% biofilm formation
Procedure: as §1

[4] = Solubility observed as precipitation in the MIC test; type: physicochemical; details: higher concentrations in the S. agalactiae MIC test
Procedure: as §1

[5] = Photolysis of compounds 1-5, 125 W medium pressure mercury vapour lamp, conversion by 1H-NMR; type: physicochemical; details: for stability under irradiation at lower pH: pH values lower than 11
Procedure: Following the procedure by Wan and Muralidharan (Wan, P.; Muralidharan, S. J. Am. Chem. Soc. 1988, 110 (13), 4336-4345) aminol 1 (compound 1) was photolysed in acetonitrile and water (7:3, v:v) at the appropriate pH using a 125 W medium pressure mercury vapour lamp. Seven experiments were performed from pH 13 to pH 1 with a concentration of around 0.68 mM, and each reaction was irradiated for. 2 hours Following liquid-liquid extraction with DCM, all reaction mixtures were analysed with ^1H-NMR spectroscopy. Initially it was expected that a mechanism similar to the nitrophenethyl alcohols (Scheme 3) would occur and the expected products would therefore be N-methyl-p-nitroaniline, phenylacetaldehyde, 2-(p-nitroaniline)acetaldehyde, and toluene
Because of this, it seems likely that following excitation to the singlet state and intersystem crossing (ISC) to the triplet state, a proton is abstracted and initiates decomposition. Two products were identified from the NMR data; p-nitroaniline and benzaldehyde. This means that there are two carbon atoms in the starting material unaccounted for (Scheme 13). A reasonable hypothesis is that they remain in the aqueous phase during extraction as formaldehyde or glyoxal.

UV-vis spectra = type: physicochemical; details: ethanol as solvent
Procedure: As illustrated in the UV-vis spectra, where the nitro group is positioned greatly influences the λmax. With nitro substitution on the aniline these values are around 380 and 400 nm, whereas for the two other compounds a hypsochromic shift is observed all the way down to 248 nm.
UV-vis spectra were obtained on an Agilent 8453 single-beam UV-vis spectrophotometer with a deuterium-discharge lamp for the UV range and a tungsten lamp for the visible wavelength range. Samples were analysed in an Agilent open-top UV quartz cell (10 mm, 3.0 mL) with ethanol as solvent. Wavelengths are reported in nm and molar attenuation coefficients in M^−1cm^−1.

[6] = Photolysis of compounds 1-5, 125 W medium pressure mercury vapour lamp, conversion by 1H-NMR; type: physicochemical; details: same conditions
[7] = pH 13, 2 hours irradiation, acetonitrile and water (7:3), medium pressure mercury lamp
[8] = pH 11, 2 hours irradiation, acetonitrile and water (7:3), medium pressure mercury lamp

Row | conversion after photolysis [5, 7] | E (UV-vis spectra) | λmax (UV-vis spectra) | conversion after photolysis [5, 8] | Structure (SMILES) | Minimum inhibitory concentration, S. Epidermidis (S. Epidermidis [2]) | MIC (S. Agalactiae) | other results
1 |  |  |  |  | O=[N+]([O-])c1ccc(F)c(CC(O)CNc2cc(Cl)c(OC(F)(F)C(F)C(F)(F)F)cc2Cl)c1F (centres unmarked) [Compound 8, 1-((2,5-Dichloro-4-(1,1,2,3,3,3-hexafluoropropoxy)phenyl)amino)-3-(2,6-difluoro-3-nitrophenyl)propan-2-ol] | I | 6.3 µM (≈ 3.42 µg/mL) | conversion after photolysis [1]: 56%; photodegradation [1]: complete degradation was not achieved; Minimum inhibitory concentration, S. Aureus (S. Aureus): I; biofilm inhibition for S. epidermidis (S. Epidermidis [3]): 25 µM; solubility [4]: limited solubility
2 | 40% | 15066.6 M⁻¹ cm⁻¹ | 248 nm |  | O=[N+]([O-])c1ccc(CC(O)CNc2ccccc2)cc1 (centres unmarked) [Compound 3] |  |  | 
3 | 17% | 1331.3 M⁻¹ cm⁻¹ | 400 nm | 17% | O=[N+]([O-])c1cccc(NCC(O)Cc2ccccc2)c1 (centres unmarked) [Compound 2] |  |  | stability under irradiation at lower pH [5]: remained stable
4 | 100% | 1740.0 M⁻¹ cm⁻¹ | 384 nm | 100% | O=[N+]([O-])c1ccc(NCC(O)Cc2ccccc2)cc1 (centres unmarked) [Compound 1] |  |  | conversion after photolysis ([5]; pH 5, 2 hours irradiation): stops completely; time to full decomposition ([5]; pH 7, extrapolated from conversion after 2 hours): ca. 6 hours; conversion in reference experiments in the dark [6]: no conversion
5 | 56% | 17018.7 M⁻¹ cm⁻¹ | 248 nm |  | O=[N+]([O-])c1cccc(CC(O)CNc2ccccc2)c1 (centres unmarked) [Compound 4] |  |  | 
6 |  |  |  |  | O=[N+]([O-])c1ccc(F)c(CC(O)CNc2cc(Cl)cc(Cl)c2F)c1F (centres unmarked) [Compound 9, 1-((3,5-Dichloro-2-fluorophenyl)amino)-3-(2,6-difluoro-3-nitrophenyl)propan-2-ol] |  | 50 µM (≈ 19.8 µg/mL) | MIC (S. Epidermidis [2]; Staphylococcus epidermidis): 50 µM (≈ 19.8 µg/mL); MIC (S. Aureus): 50 µM (≈ 19.8 µg/mL)
7 |  |  |  |  | O=[N+]([O-])c1ccc(F)c(CC(O)CNc2cc(Cl)c(F)c(Cl)c2F)c1F (centres unmarked) [Compound 7, 1-((3,5-Dichloro-2,4-difluorophenyl)amino)-3-(2,6-difluoro-3-nitrophenyl)propan-2-ol] | I |  | MIC (S. Aureus): 50 µM (≈ 20.7 µg/mL); Minimum inhibitory concentration, S. Agalactiae (S. Agalactiae): I
8 | 100% | 17263.9 M⁻¹ cm⁻¹ | 382 nm | 68% | O=C(NCC(O)CNc1ccc([N+](=O)[O-])cc1)C(Cl)Cl (centres unmarked) [Compound 5] |  |  | conversion after photolysis ([5]; pH 11, 2 hours irradiation, acetonitrile and water (7:3), medium pressure mercury lamp, listed as compound resembling chloramphenicol): 60%; conversion after photolysis ([5]; pH 13): Full conversion; stability under irradiation at lower pH [5]: remained stable
9 |  |  |  |  | O=[N+]([O-])c1ccc(CC(O)CNc2cc(Cl)c(OC(F)(F)C(F)C(F)(F)F)cc2Cl)cc1 (centres unmarked) [Compound 6] | I | 6.3 µM (≈ 3.2 µg/mL) | photodegradation [1]: complete conversion; Minimum inhibitory concentration, S. Aureus (S. Aureus): I; biofilm inhibition for S. epidermidis (S. Epidermidis [3]): 12.5 µM; solubility [4]: limited solubility
